In the CheMixHub viscosity set:

Test: xn = mol fraction of the nth substance listed

CCNc1ccccc1 + Brc1ccccc1
viscosity [mPa·s], 101 kPa
Details	303.15 K	308.15 K
x1 = 0.0714	1.056	0.995
x1 = 0.1264	1.092	1.023
x1 = 0.1965	1.139	1.06
x1 = 0.2605	1.183	1.095
x1 = 0.3365	1.237	1.137
x1 = 0.3956	1.28	1.171
x1 = 0.4958	1.352	1.229
x1 = 0.5606	1.399	1.268
x1 = 0.6429	1.46	1.319
x1 = 0.7152	1.514	1.364
x1 = 0.7825	1.565	1.407
x1 = 0.8628	1.628	1.46
x1 = 0.9205	1.675	1.499

C1CCCCCC1 + C1CCCCC1
303.15 K, 101 kPa
Details	viscosity [mPa·s]
x2 = 0.1425	1.16
x2 = 0.2998	1.085
x2 = 0.4978	1.003
x2 = 0.6947	0.9296
x2 = 0.8482	0.8767

CC(=O)O + C1CCCCC1
303.15 K, 101 kPa
Details	viscosity [mPa·s]
x2 = 0.09517	0.8375
x2 = 0.1912	0.747
x2 = 0.2978	0.6933
x2 = 0.5005	0.6661
x2 = 0.5952	0.6798
x2 = 0.6982	0.6567
x2 = 0.8007	0.6847
x2 = 0.9035	0.7306

CC(=O)O + C1CCOC1
298.15 K, 101 kPa
Details	viscosity [mPa·s]
x2 = 0.0847	1.112
x2 = 0.1723	1.087
x2 = 0.263	1.04
x2 = 0.357	0.9739
x2 = 0.4544	0.8952
x2 = 0.5554	0.8054
x2 = 0.6602	0.7083
x2 = 0.7691	0.6103
x2 = 0.8823	0.5294

ClCCCl + C1CCOC1
303.15 K, 101 kPa
Details	viscosity [mPa·s]
x2 = 0.0815	0.7038
x2 = 0.1436	0.6852
x2 = 0.2414	0.6571
x2 = 0.3055	0.6394
x2 = 0.4137	0.6105
x2 = 0.5015	0.5879
x2 = 0.6095	0.5606
x2 = 0.7289	0.5307
x2 = 0.8142	0.5097
x2 = 0.9176	0.485

ClCCl + C1CCOC1
298 K, 101 kPa
Details	viscosity [mPa·s]
x1 = 0.0981	0.455
x1 = 0.2079	0.454
x1 = 0.3064	0.453
x1 = 0.3509	0.452
x1 = 0.4032	0.451
x1 = 0.4519	0.45
x1 = 0.4994	0.449
x1 = 0.5531	0.447
x1 = 0.5994	0.445
x1 = 0.6477	0.443
x1 = 0.6696	0.441
x1 = 0.7756	0.437
x1 = 0.7999	0.435
x1 = 0.9011	0.428

ClCCCl + C1COCCO1
303.15 K, 101.33 kPa
Details	viscosity [mPa·s]
x2 = 0.0462	0.7468
x2 = 0.1984	0.7909
x2 = 0.2786	0.8101
x2 = 0.3663	0.8307
x2 = 0.4515	0.8512
x2 = 0.567	0.8832
x2 = 0.6362	0.9068
x2 = 0.7673	0.9595
x2 = 0.8428	0.996
x2 = 0.9185	1.037

ClCCl + C1COCCO1
viscosity [mPa·s], 101 kPa
Details	x1 = 0.117	x1 = 0.1716	x1 = 0.2883	x1 = 0.4089	x1 = 0.4973	x1 = 0.5905	x1 = 0.7057	x1 = 0.7928	x1 = 0.902
293.15 K	1.112	1.045	0.946	0.841	0.76	0.691	0.612	0.553	0.485
298.15 K	1.027	0.97	0.882	0.786	0.713	0.654	0.579	0.525	0.46

CC(=O)O + CC#N
viscosity [mPa·s], 101 kPa
Details	x1 = 0.0924	x1 = 0.1864	x1 = 0.282	x1 = 0.3793	x1 = 0.4782	x1 = 0.5789	x1 = 0.6814	x1 = 0.7857	x1 = 0.8919
298.15 K	0.3742	0.4162	0.4785	0.558	0.6509	0.7533	0.8608	0.9682	1.07
308.15 K	0.3267	0.3622	0.4177	0.4891	0.5719	0.6612	0.7513	0.8362	0.9088
318.15 K	0.2808	0.3168	0.3759	0.4515	0.5363	0.6224	0.7005	0.7609	0.7925

ClCCCl + CC#N
101.33 kPa
Details	viscosity [mPa·s]
298 K, x2 = 0.0717	0.754
298 K, x2 = 0.1909	0.698
298 K, x2 = 0.2938	0.65
298 K, x2 = 0.3884	0.607
298 K, x2 = 0.4948	0.558
298 K, x2 = 0.5896	0.515
298 K, x2 = 0.6957	0.468
298 K, x2 = 0.7981	0.425
298 K, x2 = 0.8955	0.385
303.15 K, x2 = 0.113	0.674
303.15 K, x2 = 0.1744	0.6458
303.15 K, x2 = 0.2643	0.6069
303.15 K, x2 = 0.3563	0.5679
303.15 K, x2 = 0.4072	0.5471
303.15 K, x2 = 0.543	0.4921
303.15 K, x2 = 0.6825	0.4372
303.15 K, x2 = 0.8073	0.3903
303.15 K, x2 = 0.8792	0.3647
303.15 K, x2 = 0.9181	0.3513

CCNc1ccccc1 + CC(=O)c1ccccc1
303.15 K, 100 kPa
Details	viscosity [mPa·s]
x1 = 0.0651	1.524
x1 = 0.1424	1.538
x1 = 0.2225	1.554
x1 = 0.2977	1.568
x1 = 0.3611	1.581
x1 = 0.4487	1.599
x1 = 0.5162	1.614
x1 = 0.5869	1.631
x1 = 0.6407	1.644
x1 = 0.7083	1.662
x1 = 0.7798	1.681
x1 = 0.8256	1.694
x1 = 0.9025	1.715

ClCCl + CC(=O)c1ccccc1
298.15 K, 101 kPa
Details	viscosity [mPa·s]
x2 = 0.0728	0.5046
x2 = 0.1501	0.5598
x2 = 0.2324	0.6209
x2 = 0.3201	0.6967
x2 = 0.4139	0.7804
x2 = 0.5144	0.8931
x2 = 0.6224	1.036
x2 = 0.7386	1.212
x2 = 0.8641	1.422

CCC(C)Br (stereo unspecified) + CC(C)(C)O
viscosity [mPa·s], 101.3 kPa
Details	x1 = 0.05	x1 = 0.102	x1 = 0.2043	x1 = 0.3044	x1 = 0.4041	x1 = 0.5032	x1 = 0.6203	x1 = 0.7036	x1 = 0.8056	x1 = 0.9064
298.15 K	3.175	2.363	1.519	1.152	0.9576	0.8183	0.7087	0.6532	0.6048	0.5718
313.15 K	1.651	1.36	0.9969	0.8102	0.7146	0.6337	0.5665	0.5317	0.4987	0.4777

CCNc1ccccc1 + CC(C)(C)O
viscosity [mPa·s], 101 kPa
Details	303.15 K	308.15 K
x1 = 0.0789	3.287	2.6
x1 = 0.1325	3.222	2.566
x1 = 0.1974	3.139	2.522
x1 = 0.2562	3.061	2.478
x1 = 0.3315	2.957	2.414
x1 = 0.4056	2.848	2.343
x1 = 0.4868	2.717	2.256
x1 = 0.5626	2.59	2.167
x1 = 0.6195	2.488	2.096
x1 = 0.6889	2.359	2.003
x1 = 0.7514	2.241	1.916
x1 = 0.8214	2.102	1.815
x1 = 0.8914	1.96	1.71

CC(=O)O + CC(C)=O
viscosity [mPa·s], 101 kPa
Details	293.15 K	298.15 K	303.15 K	313.15 K
x1 = 0.0996	–	0.3496	–	–
x1 = 0.13	0.3909	–	0.3546	0.3238
x1 = 0.2035	–	0.4046	–	–
x1 = 0.222	0.4389	–	0.3976	0.3607
x1 = 0.302	0.4916	–	0.4411	0.3993
x1 = 0.3025	–	0.4636	–	–
x1 = 0.4025	0.5632	–	0.5015	0.4518
x1 = 0.4049	–	0.535	–	–
x1 = 0.4986	–	0.6098	–	–
x1 = 0.5066	0.6549	–	0.5766	0.5138
x1 = 0.5973	–	0.6994	–	–
x1 = 0.605	0.7515	–	0.6562	0.5817
x1 = 0.6968	–	0.8024	–	–
x1 = 0.6994	0.8612	–	0.7482	0.6564
x1 = 0.8015	–	0.9213	–	–
x1 = 0.805	0.9881	–	0.8527	0.7437
x1 = 0.9011	1.103	–	0.9472	0.8218
x1 = 0.9037	–	1.036	–	–

ClCCl + CC(C)=O
viscosity [mPa·s], 101 kPa
Details	x2 = 0.0866	x2 = 0.186	x2 = 0.3088	x2 = 0.3898	x2 = 0.4934	x2 = 0.5941	x2 = 0.6959	x2 = 0.8096	x2 = 0.899
293.15 K	0.439	0.436	0.423	0.412	0.4	0.388	0.374	0.358	0.339
298.15 K	0.422	0.417	0.405	0.396	0.383	0.37	0.357	0.343	0.327

CCC(C)Br (stereo unspecified) + CC(C)CO
viscosity [mPa·s], 101.3 kPa
Details	298.15 K	313.15 K
x1 = 0.0474	2.895	1.857
x1 = 0.102	2.431	1.596
x1 = 0.203	1.813	1.244
x1 = 0.3032	1.407	1.007
x1 = 0.4043	1.126	0.8382
x1 = 0.5066	0.9316	0.7176
x1 = 0.6053	0.7983	0.6315
x1 = 0.7043	0.7016	0.5696
x1 = 0.803	0.6311	0.5215
x1 = 0.8948	0.5854	0.4887
x1 = 0.9318	0.5716	0.4796

CCNc1ccccc1 + CC(C)CO
viscosity [mPa·s], 101 kPa
Details	303.15 K	308.15 K
x1 = 0.0756	2.789	2.414
x1 = 0.1356	2.742	2.38
x1 = 0.1958	2.695	2.348
x1 = 0.2654	2.637	2.307
x1 = 0.3214	2.588	2.27
x1 = 0.3956	2.517	2.215
x1 = 0.4565	2.454	2.16
x1 = 0.5202	2.384	2.106
x1 = 0.6021	2.284	2.029
x1 = 0.6745	2.194	1.956
x1 = 0.7325	2.116	1.889
x1 = 0.8025	2.019	1.811
x1 = 0.8869	1.903	1.714
